In PubChem BioAssay (NCI):
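Where inhibition never reached the appropriate level, the endpoint shown equals the highest concentration tested. Otherwise, values were interpolated linearly from a five-concentration, 48-hour dose response in 96-well plates. At the GI50, growth is halved. Definition used: TGI = concentration required for complete inhibition of growth.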

Assays:
Experiment in all cases: growth of human tumour cells (NCI), 48 h
[1] = test system: SN12C renal
[2] = test system: HL-60(TB) leukemia
[3] = test system: 786-0 renal
[4] = test system: A498 renal
[5] = test system: ACHN renal
[6] = test system: U251 CNS
[7] = test system: OVCAR-4 ovarian
[8] = test system: IGROV1 ovarian
[9] = test system: LOX IMVI melanoma
[10] = test system: UACC-257 melanoma

With `CCn1c(SC(C)C(=O)c2c(C)n(C)n(-c3ccccc3)c2=O)nc2ccccc2c1=O` (stereo not given) the TGI [1] was > 100 µM, the TGI [2] was > 100 µM and the TGI [3] was > 100 µM. The TGI [4] was > 100 µM, the TGI [5] was > 100 µM and the TGI [6] was > 100 µM. The TGI [7] was > 100 µM, the TGI [8] was > 100 µM and the TGI [9] was > 100 µM. The TGI [10] was > 100 µM.
With `CS(=O)(=O)NNS(=O)(=O)c1ccccc1` the TGI [1] was > 100 µM, the TGI [2] was > 100 µM and the TGI [3] was > 100 µM. For the same compound, the TGI [4] was > 100 µM, the TGI [5] was > 100 µM and the TGI [6] was > 100 µM. For the same compound, the TGI [7] was > 100 µM, the TGI [8] was > 100 µM and the TGI [9] was > 100 µM. The TGI [10] was > 100 µM.
For `CC(C)(C)c1ccc(OC(=O)Nc2ccc(O)c(C(=O)O)c2)cc1`, the TGI [1] was > 100 µM, the TGI [2] was > 100 µM and the TGI [3] was > 100 µM. For the same compound, the TGI [4] was > 100 µM, the TGI [5] was > 100 µM and the TGI [6] was > 100 µM. For the same compound, the TGI [7] was > 100 µM, the TGI [8] was > 100 µM and the TGI [9] was > 100 µM. The TGI [10] was > 100 µM.
For `COc1cccc(-c2ccc3c(c2)C2CCN(Cc4ccccc4)C3C2)c1` (stereo not given), the GI50 [1] was 11.2 µM, the TGI [1] was 30.3 µM and the GI50 [2] was 5.71 µM. It also gave a TGI [2] of 21 µM, a GI50 [3] of 13900 nM and a TGI [3] of 36.1 µM. For the same compound, the GI50 [4] was 3770 nM, the TGI [4] was 17.6 µM and the GI50 [5] was 11900 nM. The TGI [5] was 38.1 µM, the GI50 [6] was 7630 nM and the TGI [6] was 22 µM. The GI50 [7] was 5710 nM, the TGI [7] was 58.2 µM and the GI50 [8] was 8990 nM. It also gave a TGI [8] of 76.6 µM, a GI50 [9] of 10200 nM and a TGI [9] of 26.8 µM. The GI50 [10] was 11200 nM and the TGI [10] was 29.1 µM.
With `COc1cccc(-c2nn(-c3ccccc3)cc2-c2ccnc(NCCNC(=O)Nc3cccc(C(F)(F)F)c3)c2)c1` the GI50 [1] was 1.95 µM, the TGI [1] was 4.06 µM and the GI50 [2] was 1.54 µM. For the same compound, the TGI [2] was 4.23 µM, the GI50 [3] was 1930 nM and the TGI [3] was 4.39 µM. For the same compound, the GI50 [4] was 2490 nM, the TGI [4] was 8.37 µM and the GI50 [5] was 2910 nM. It also gave a TGI [5] of 10.4 µM, a GI50 [6] of 2280 nM and a TGI [6] of 5.26 µM. For the same compound, the GI50 [7] was 2360 nM, the TGI [7] was 8.13 µM and the GI50 [8] was 2880 nM. For the same compound, the TGI [8] was 9.34 µM, the GI50 [9] was 1640 nM and the TGI [9] was 2.99 µM. The GI50 [10] was 2140 nM and the TGI [10] was 4.81 µM.
With `CC(=O)N1N=C(c2ccc(Nc3ccnc4cc(Cl)ccc34)cc2)CC1c1ccc(Cl)cc1` (stereo not given) the GI50 [1] was 30.7 µM, the TGI [1] was > 100 µM and the GI50 [2] was 3.56 µM. For the same compound, the TGI [2] was > 100 µM, the GI50 [3] was > 100000 nM and the TGI [3] was > 100 µM. For the same compound, the GI50 [4] was > 100000 nM, the TGI [4] was > 100 µM and the GI50 [5] was 3960 nM. For the same compound, the TGI [5] was > 100 µM, the GI50 [6] was > 100000 nM and the TGI [6] was > 100 µM. The GI50 [7] was 6920 nM, the TGI [7] was > 100 µM and the GI50 [8] was > 100000 nM. The TGI [8] was > 100 µM, the GI50 [9] was 3150 nM and the TGI [9] was > 100 µM. The GI50 [10] was > 100000 nM and the TGI [10] was > 100 µM.
`N#CC1CCCCOCCOCCOCCOCCOCCCCCC1=O` (stereo not given) was tested, and the TGI [1] was > 100 µM, the TGI [2] was > 100 µM and the TGI [3] was > 100 µM. For the same compound, the TGI [4] was > 100 µM, the TGI [5] was > 100 µM and the TGI [6] was > 100 µM. The TGI [7] was > 100 µM, the TGI [8] was > 100 µM and the TGI [9] was > 100 µM. For the same compound, the TGI [10] was > 100 µM.
With `CN(Cc1cccc(F)c1)c1ccc(CO)c(Cl)c1` the GI50 [1] was 22.3 µM, the TGI [1] was > 100 µM and the GI50 [2] was 22 µM. For the same compound, the TGI [2] was > 77.2 µM, the GI50 [3] was 13000 nM and the TGI [3] was 41.2 µM. It also gave a GI50 [4] of 57 nM, a TGI [4] of 0.189 µM and a GI50 [5] of 37300 nM. For the same compound, the TGI [5] was > 100 µM, the GI50 [6] was 4570 nM and the TGI [6] was 30.6 µM. For the same compound, the GI50 [7] was 1610 nM, the TGI [7] was 17 µM and the GI50 [8] was 361 nM. For the same compound, the TGI [8] was 3.05 µM, the GI50 [9] was 23500 nM and the TGI [9] was 75.9 µM. The GI50 [10] was 304 nM and the TGI [10] was 1.33 µM.
For `O=C1C2=C(c3ccccc31)C(c1ccccc1)N1C(=O)CSC1=N2` (stereo not given), the TGI [1] was > 94.9 µM, the TGI [2] was 95.8 µM and the TGI [3] was > 100 µM. The TGI [4] was > 100 µM, the TGI [5] was > 100 µM and the TGI [6] was > 100 µM. For the same compound, the TGI [7] was > 100 µM, the TGI [8] was > 100 µM and the TGI [9] was > 100 µM. For the same compound, the TGI [10] was > 100 µM.
Work on `COC1=C(C)C(=O)c2c(c(CCCl)c3n2CCC3O)C1=O` (stereo not given) yielded a GI50 [1] of 0.694 µM, a TGI [1] of 14.2 µM and a GI50 [2] of 3.34 µM. It also gave a TGI [2] of 30.4 µM, a GI50 [3] of 810 nM and a TGI [3] of 6.5 µM. It also gave a GI50 [4] of 145 nM, a TGI [4] of 0.313 µM and a GI50 [5] of 327 nM. It also gave a TGI [5] of 6.83 µM, a GI50 [6] of 360 nM and a TGI [6] of 11.9 µM. For the same compound, the GI50 [7] was 9360 nM, the TGI [7] was 39 µM and the GI50 [8] was 2590 nM. For the same compound, the TGI [8] was 12.4 µM, the GI50 [9] was 592 nM and the TGI [9] was 5.23 µM. It also gave a GI50 [10] of 839 nM and a TGI [10] of 3.45 µM.
For `CCN(CC)c1ccc(N=Nc2ccc([N+](=O)[O-])cc2OC(=O)/C=C/c2ccccc2)c(OC(=O)/C=C/c2ccccc2)c1`, the TGI [1] was > 100 µM, the TGI [2] was > 44 µM and the TGI [3] was > 100 µM. The TGI [4] was > 58.4 µM, the TGI [5] was > 100 µM and the TGI [6] was > 100 µM. The TGI [7] was > 100 µM, the TGI [8] was > 100 µM and the TGI [9] was > 100 µM. For the same compound, the TGI [10] was 99.7 µM.
`Cc1ccc(/C=C2\CN(C(=O)C(Cl)Cl)C/C(=C\c3ccc(C)cc3)C2=O)cc1` showed a GI50 [2] of 0.25 µM, a TGI [2] of 1.33 µM and a GI50 [3] of 194 nM. The TGI [3] was 0.397 µM, the GI50 [4] was 203 nM and the TGI [4] was 0.79 µM. For the same compound, the GI50 [5] was 244 nM, the TGI [5] was 0.62 µM and the GI50 [6] was 143 nM. For the same compound, the TGI [6] was 0.334 µM, the GI50 [7] was 322 nM and the TGI [7] was > 100 µM. For the same compound, the GI50 [8] was 180 nM, the TGI [8] was 0.367 µM and the GI50 [9] was 62.1 nM. The TGI [9] was 0.199 µM, the GI50 [10] was 346 nM and the TGI [10] was 3.16 µM.
`CC1(C)O[C@@H](CCl)C[C@H](C#N)O1` was tested, and the TGI [1] was > 100 µM, the TGI [2] was > 100 µM and the TGI [3] was > 100 µM. The TGI [4] was > 100 µM, the TGI [5] was > 100 µM and the TGI [6] was > 100 µM. The TGI [7] was > 100 µM, the TGI [8] was > 100 µM and the TGI [9] was > 100 µM. The TGI [10] was > 100 µM.
With `Cc1cccc(C(C)C)c1N1C(=O)C(=O)C(c2nc3ccccc3o2)C(=O)C1=O` the TGI [1] was > 100 µM, the TGI [2] was 80.9 µM and the TGI [3] was > 100 µM. For the same compound, the TGI [4] was > 100 µM, the TGI [5] was > 100 µM and the TGI [6] was > 100 µM. For the same compound, the TGI [7] was > 100 µM, the TGI [8] was > 100 µM and the TGI [9] was > 100 µM. The TGI [10] was > 100 µM.
`COc1cc2c(cc1OC)C(Sc1ccc(SC)cc1)c1c(nc(N)c(C#N)c1N)O2` (stereo not given) gave a GI50 [2] of 1.51 µM, a TGI [2] of 3.59 µM and a GI50 [3] of 1530 nM. For the same compound, the TGI [3] was 2.85 µM, the GI50 [4] was 1610 nM and the TGI [4] was 3.28 µM. It also gave a GI50 [5] of 1690 nM, a TGI [5] of 3.06 µM and a GI50 [6] of 1370 nM. The TGI [6] was 2.66 µM, the GI50 [7] was 1640 nM and the TGI [7] was 3.27 µM. For the same compound, the GI50 [8] was 1230 nM, the TGI [8] was 3.24 µM and the GI50 [9] was 1280 nM. It also gave a TGI [9] of 2.55 µM, a GI50 [10] of 2070 nM and a TGI [10] of 3.51 µM.
`S=c1[nH]nc(Cc2ccccc2)c(=S)[nH]1` was tested, and the TGI [1] was > 100 µM, the TGI [2] was > 100 µM and the TGI [3] was > 100 µM. The TGI [4] was > 81.8 µM, the TGI [6] was > 100 µM and the TGI [7] was > 100 µM. The TGI [8] was > 100 µM, the TGI [9] was 99.3 µM and the TGI [10] was > 100 µM.
